Results as given in patent publication US9012642B2, “Pyrrolopyridinone compounds and methods for treating HIV” (ViiV Healthcare UK Limited, priority 2011, dated 2015).
Where two headings read alike, the source gives them in different places.

Test system: HIV
Assay: HIV MT4 Assay (antiviral HIV activity in MT-4 cells)
Format: cell-based
Experimental: Antiviral HIV activity and cytotoxicity values for compounds of the invention from Table 1 were measured in parallel in the HTLV-1 transformed cell line MT-4 based on the method previously described (Hazen et al., 2007, In vitro antiviral activity of the novel, tyrosyl-based human immunodeficiency virus (HIV) type 1 protease inhibitor brecanavir (GW640385) in combination with other antiretrovirals and against a panel of protease inhibitor-resistant HIV (Hazen et al., “In vitro antiviral activity of the novel, tyrosyl-based human immunodeficiency virus (HIV) type 1 protease inhibitor brecanavir (GW640385) in combination with other antiretrovirals and against a panel of protease inhibitor-resistant HIV”, Antimicrob. Agents Chemother. 2007, 51: 3147-3154; and Pauwels et al., “Sensitive and rapid assay on MT-4 cells for the detection of antiviral compounds against the AIDS virus”, (J. of Virological Methods 1987, 16: 171-185).
Luciferase activity was measured 96 hours later by adding a cell titer glo (Promega, Madison, Wis.). Percent inhibition of cell protection data was plotted relative to no compound control. Under the same condition, cytotoxicity of the compounds was determined using cell titer Glo™ (Promega, Madison, Wis.). IC50s were determined from a 10 point dose response curve using 3-4-fold serial dilution for each compound, which spans a concentration range >1000 fold.
These values are plotted against the molar compound concentrations using the standard four parameter logistic equation: y=((Vmax*x^n)/(K^n+x^n))+Y^2
Y^2=minimum y n=slope factor
Vmax=maximum y x=compound concentration [M]

[1] = Human immunodeficiency virus 1, MT4, HTLV-1 transformed cell line MT-4, luciferase activity measured 96 hours later, Table 3, read-out: HIV MT4 Assay IC50
[2] = MT4, 96 h, read-out: MT4 (IC50)

SMILES	IC50 [1] [nM]	IC50 [2] [nM]
Cn1c(C(OC(C)(C)C)C(=O)O)c(-c2ccc(Cl)cc2)c2ccn(Cc3cn(CCO)nn3)c2c1=O (centres unmarked) [Example 18, 2-(tert-butoxy)-2-(4-(4-chlorophenyl)-1-((1-(2-hydroxyethyl)-1H-1,2,3-triazol-4-yl)methyl)-6-methyl-7-oxo-6,7-dihydro-1H-pyrrolo[2,3-c]pyridin-5-yl)acetic acid]	50000	50000
Cc1ccc(-c2c(C(OC(C)(C)C)C(=O)O)n(C)c(=O)c3c2ccn3Cc2ccccc2)cc1 (centres unmarked) [Example 19, 2-(1-benzyl-6-methyl-7-oxo-4-(p-tolyl)-6,7-dihydro-1H-pyrrolo[2,3-c]pyridin-5-yl)-2-(tert-butoxy)acetic acid]	80	80
Cc1ccc(-c2c(C(OC(C)(C)C)C(=O)O)n(C)c(=O)c3c2ccn3Cc2ccc3nonc3c2)cc1 (centres unmarked) [Example 20, 2-(1-(benzo[c][1,2,5]oxadiazol-5-ylmethyl)-6-methyl-7-oxo-4-(p-tolyl)-6,7-dihydro-1H-pyrrolo[2,3-c]pyridin-5-yl)-2-(tert-butoxy)acetic acid]	160	160
Cc1ccc(-c2c(C(OC(C)(C)C)C(=O)O)n(C)c(=O)c3c2ccn3Cc2ccc(B(O)O)cc2)cc1 (centres unmarked) [Example 21, 2-(1-(4-boronobenzyl)-6-methyl-7-oxo-4-(p-tolyl)-6,7-dihydro-1H-pyrrolo[2,3-c]pyridin-5-yl)-2-(tert-butoxy)acetic acid]	2700	2700
Cc1ccc(-c2c(C(OC(C)(C)C)C(=O)O)n(C)c(=O)c3c2ccn3Cc2ccc(C(N)=O)cc2)cc1 (centres unmarked) [Example 22, 2-(tert-butoxy)-2-(1-(4-carbamoylbenzyl)-6-methyl-7-oxo-4-(p-tolyl)-6,7-dihydro-1H-pyrrolo[2,3-c]pyridin-5-yl)acetic acid]	8700	8700
Cc1ccc(-c2c(C(OC(C)(C)C)C(=O)O)n(C)c(=O)c3c2ccn3Cc2ccc(SC(F)(F)F)cc2)cc1 (centres unmarked) [Example 23, 2-(tert-butoxy)-2-(6-methyl-7-oxo-4-(p-tolyl)-1-(4-((trifluoromethyl)thio)benzyl)-6,7-dihydro-1H-pyrrolo[2,3-c]pyridin-5-yl)acetic acid]	1500	1500
Cc1ccc(-c2c([C@H](OC(C)(C)C)C(=O)O)n(C)c(=O)c3c2ccn3Cc2ccc(F)cc2)cc1 [Example 24, (S)-2-(tert-butoxy)-2-(1-(4-fluorobenzyl)-6-methyl-7-oxo-4-(p-tolyl)-6,7-dihydro-1H-pyrrolo[2,3-c]pyridin-5-yl)acetic acid]	40	40
Cc1ccc(-c2c(C(OC(C)(C)C)C(=O)O)n(C)c(=O)c3c2ccn3Cc2cccs2)cc1 (centres unmarked) [Example 25, 2-(tert-butoxy)-2-(6-methyl-7-oxo-1-(thiophen-2-ylmethyl)-4-(p-tolyl)-6,7-dihydro-1H-pyrrolo[2,3-c]pyridin-5-yl)acetic acid]	220	220
Cc1ccc(-c2c(C(OC(C)(C)C)C(=O)O)n(C)c(=O)c3c2ccn3CCc2ccc(F)cc2)cc1 (centres unmarked) [Example 26, 2-(tert-butoxy)-2-(1-(4-fluorophenethyl)-6-methyl-7-oxo-4-(p-tolyl)-6,7-dihydro-1H-pyrrolo[2,3-c]pyridin-5-yl)acetic acid]	2250	2250
Cc1ccc(-c2c(C(OC(C)(C)C)C(=O)O)n(C)c(=O)c3c2ccn3Cc2ccc(S(C)(=O)=O)cc2)cc1 (centres unmarked) [Example 27, 2-(tert-butoxy)-2-(6-methyl-1-(4-(methylsulfonyl)benzyl)-7-oxo-4-(p-tolyl)-6,7-dihydro-1H-pyrrolo[2,3-c]pyridin-5-yl)acetic acid]	3850	3850
Cc1ccc(-c2c(C(OC(C)(C)C)C(=O)O)n(C)c(=O)c3c2ccn3Cc2ccc(F)c(F)c2)cc1 (centres unmarked) [Example 28, 2-(tert-butoxy)-2-(1-(3,4-difluorobenzyl)-6-methyl-7-oxo-4-(p-tolyl)-6,7-dihydro-1H-pyrrolo[2,3-c]pyridin-5-yl)acetic acid]	80	80
COc1ccc(Cn2ccc3c(-c4ccc(C)cc4)c(C(OC(C)(C)C)C(=O)O)n(C)c(=O)c32)cc1 (centres unmarked) [Example 29, 2-(tert-butoxy)-2-(1-(4-methoxybenzyl)-6-methyl-7-oxo-4-(p-tolyl)-6,7-dihydro-1H-pyrrolo[2,3-c]pyridin-5-yl)acetic acid]	170	170
Cc1ccc(-c2c(C(OC(C)(C)C)C(=O)O)n(C)c(=O)c3c2ccn3C)cc1 (centres unmarked) [Example 30, 2-(tert-butoxy)-2-(1,6-dimethyl-7-oxo-4-(p-tolyl)-6,7-dihydro-1H-pyrrolo[2,3-c]pyridin-5-yl)acetic acid]	1100	1100
Cc1ccc(-c2c(C(OC(C)(C)C)C(=O)O)n(C)c(=O)c3c2ccn3Cc2ccc(Cl)c(F)c2)cc1 (centres unmarked) [Example 31, 2-(tert-butoxy)-2-(1-(4-chloro-3-fluorobenzyl)-6-methyl-7-oxo-4-(p-tolyl)-6,7-dihydro-1H-pyrrolo[2,3-c]pyridin-5-yl)acetic acid]	110	110
Cc1ccc(-c2c(C(OC(C)(C)C)C(=O)O)n(C)c(=O)c3c2ccn3Cc2cc(F)c(F)c(F)c2)cc1 (centres unmarked) [Example 32, 2-(tert-butoxy)-2-(6-methyl-7-oxo-4-(p-tolyl)-1-(3,4,5-trifluorobenzyl)-6,7-dihydro-1H-pyrrolo[2,3-c]pyridin-5-yl)acetic acid]	80	80
Cc1ccc(-c2c(C(OC(C)(C)C)C(=O)O)n(C)c(=O)c3c2ccn3Cc2ccc3c(c2)OCO3)cc1 (centres unmarked) [Example 33, 2-(1-(benzo[d][1,3]dioxol-5-ylmethyl)-6-methyl-7-oxo-4-(p-tolyl)-6,7-dihydro-1H-pyrrolo[2,3-c]pyridin-5-yl)-2-(tert-butoxy)acetic acid]	210	210
Cc1ccc(-c2c(C(OC(C)(C)C)C(=O)O)n(C)c(=O)c3c2ccn3-c2ccc(F)cc2)cc1 (centres unmarked) [Example 34, 2-(tert-butoxy)-2-(1-(4-fluorophenyl)-6-methyl-7-oxo-4-(p-tolyl)-6,7-dihydro-1H-pyrrolo[2,3-c]pyridin-5-yl)acetic acid]	770	770
Cc1ccc(-c2c(C(OC(C)(C)C)C(=O)O)n(C)c(=O)c3c2ccn3CC(=O)Nc2ccc(F)cc2)cc1 (centres unmarked) [Example 35, 2-(tert-butoxy)-2-(1-(2-((4-fluorophenyl)amino)-2-oxoethyl)-6-methyl-7-oxo-4-(p-tolyl)-6,7-dihydro-1H-pyrrolo[2,3-c]pyridin-5-yl)acetic acid]	1000	1000
COc1ccc(-c2c(C(OC(C)(C)C)C(=O)O)n(C)c(=O)c3c2ccn3Cc2ccc(F)cc2)cc1 (centres unmarked) [Example 36, 2-(tert-butoxy)-2-(1-(4-fluorobenzyl)-4-(4-methoxyphenyl)-6-methyl-7-oxo-6,7-dihydro-1H-pyrrolo[2,3-c]pyridin-5-yl)acetic acid]	60	60
Cn1c(C(OC(C)(C)C)C(=O)O)c(-c2ccc(F)cc2)c2ccn(Cc3ccc(F)cc3)c2c1=O (centres unmarked) [Example 37, 2-(tert-butoxy)-2-(1-(4-fluorobenzyl)-4-(4-fluorophenyl)-6-methyl-7-oxo-6,7-dihydro-1H-pyrrolo[2,3-c]pyridin-5-yl)acetic acid]	670	670
Cc1c(-c2c(C(OC(C)(C)C)C(=O)O)n(C)c(=O)c3c2ccn3Cc2ccccc2)ccc2c1CCCO2 (centres unmarked) [Example 38, 2-(1-benzyl-6-methyl-4-(5-methylchroman-6-yl)-7-oxo-6,7-dihydro-1H-pyrrolo[2,3-c]pyridin-5-yl)-2-(tert-butoxy)acetic acid]	70	70
Cc1c(-c2c(C(OC(C)(C)C)C(=O)O)n(C)c(=O)c3c2ccn3C)ccc2c1CCCO2 (centres unmarked) [Example 40, 2-(tert-butoxy)-2-(1,6-dimethyl-4-(5-methylchroman-6-yl)-7-oxo-6,7-dihydro-1H-pyrrolo[2,3-c]pyridin-5-yl)acetic acid]	500	500
Cc1c(-c2c(C(OC(C)(C)C)C(=O)O)n(C)c(=O)c3c2ccn3Cc2ccccn2)ccc2c1CCCO2 (centres unmarked) [Example 42, 2-(tert-butoxy)-2-(6-methyl-4-(5-methylchroman-6-yl)-7-oxo-1-(pyridin-2-ylmethyl)-6,7-dihydro-1H-pyrrolo[2,3-c]pyridin-5-yl)acetic acid]	540	540
COCCn1ccc2c(-c3ccc4c(c3C)CCCO4)c(C(OC(C)(C)C)C(=O)O)n(C)c(=O)c21 (centres unmarked) [Example 43, 2-(tert-butoxy)-2-(1-(2-methoxyethyl)-6-methyl-4-(5-methylchroman-6-yl)-7-oxo-6,7-dihydro-1H-pyrrolo[2,3-c]pyridin-5-yl)acetic acid]	1100	1100
Cc1c(-c2c(C(OC(C)(C)C)C(=O)O)n(C)c(=O)c3c2ccn3Cc2ccc(Cl)cc2)ccc2c1CCCO2 (centres unmarked) [Example 44, 2-(tert-butoxy)-2-(1-(4-chlorobenzyl)-6-methyl-4-(5-methylchroman-6-yl)-7-oxo-6,7-dihydro-1H-pyrrolo[2,3-c]pyridin-5-yl)acetic acid]	50	50
